From ChEMBL document CHEMBL5291721, “A preclinical secondary pharmacology resource illuminates target-adverse drug reaction associations of marketed drugs” (Nat Commun, 2023)

Key:
[1] = target: Synaptic vesicular amine transporter (Rattus norvegicus, UniProt Q01827); assay type: functional
Glucocorticoid receptor [2] = target: T1, Glucocorticoid receptor (Homo sapiens, UniProt P04150); assay type: functional
T1 sequence (P04150 whole entry): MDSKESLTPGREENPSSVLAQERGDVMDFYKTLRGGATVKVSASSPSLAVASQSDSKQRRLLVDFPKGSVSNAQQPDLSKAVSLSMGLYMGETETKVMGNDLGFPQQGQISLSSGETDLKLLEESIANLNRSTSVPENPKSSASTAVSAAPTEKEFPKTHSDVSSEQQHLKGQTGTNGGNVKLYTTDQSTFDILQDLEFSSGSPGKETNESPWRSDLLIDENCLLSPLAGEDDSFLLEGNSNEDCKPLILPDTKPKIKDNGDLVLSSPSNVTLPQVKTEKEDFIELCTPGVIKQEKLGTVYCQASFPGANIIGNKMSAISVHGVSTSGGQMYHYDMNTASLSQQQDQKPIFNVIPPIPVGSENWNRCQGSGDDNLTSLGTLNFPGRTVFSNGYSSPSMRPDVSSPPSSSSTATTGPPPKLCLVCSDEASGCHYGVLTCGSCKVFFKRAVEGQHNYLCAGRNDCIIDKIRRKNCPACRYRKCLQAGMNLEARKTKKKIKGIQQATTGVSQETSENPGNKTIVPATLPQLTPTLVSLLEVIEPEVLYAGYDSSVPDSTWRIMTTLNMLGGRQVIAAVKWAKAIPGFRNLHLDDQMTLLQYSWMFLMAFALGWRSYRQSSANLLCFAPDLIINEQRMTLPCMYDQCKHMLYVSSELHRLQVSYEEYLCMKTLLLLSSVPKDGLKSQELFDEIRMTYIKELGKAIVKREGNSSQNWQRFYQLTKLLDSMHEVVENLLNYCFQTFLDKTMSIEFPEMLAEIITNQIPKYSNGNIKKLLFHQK

Glucocorticoid receptor [3] = target: T1, Glucocorticoid receptor; assay type: functional; remark: listed apart in the source
[4] = target: T2, Muscarinic acetylcholine receptor M1 (Homo sapiens, UniProt P11229)
T2 sequence (P11229 whole entry): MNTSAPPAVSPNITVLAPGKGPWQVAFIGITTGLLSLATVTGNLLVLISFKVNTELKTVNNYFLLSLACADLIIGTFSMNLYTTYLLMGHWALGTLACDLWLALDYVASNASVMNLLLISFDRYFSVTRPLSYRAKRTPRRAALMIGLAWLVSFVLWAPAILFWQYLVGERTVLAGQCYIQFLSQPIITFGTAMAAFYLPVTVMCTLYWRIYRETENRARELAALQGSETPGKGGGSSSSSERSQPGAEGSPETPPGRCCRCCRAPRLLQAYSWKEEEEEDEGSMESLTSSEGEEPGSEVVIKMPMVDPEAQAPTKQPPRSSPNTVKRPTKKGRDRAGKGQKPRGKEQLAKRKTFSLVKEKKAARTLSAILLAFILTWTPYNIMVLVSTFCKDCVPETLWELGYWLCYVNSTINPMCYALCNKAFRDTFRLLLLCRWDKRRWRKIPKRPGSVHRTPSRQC

[5] = target: T3, Oxysterols receptor LXR-alpha (Homo sapiens, UniProt Q13133); assay type: functional
T3 sequence (Q13133 whole entry): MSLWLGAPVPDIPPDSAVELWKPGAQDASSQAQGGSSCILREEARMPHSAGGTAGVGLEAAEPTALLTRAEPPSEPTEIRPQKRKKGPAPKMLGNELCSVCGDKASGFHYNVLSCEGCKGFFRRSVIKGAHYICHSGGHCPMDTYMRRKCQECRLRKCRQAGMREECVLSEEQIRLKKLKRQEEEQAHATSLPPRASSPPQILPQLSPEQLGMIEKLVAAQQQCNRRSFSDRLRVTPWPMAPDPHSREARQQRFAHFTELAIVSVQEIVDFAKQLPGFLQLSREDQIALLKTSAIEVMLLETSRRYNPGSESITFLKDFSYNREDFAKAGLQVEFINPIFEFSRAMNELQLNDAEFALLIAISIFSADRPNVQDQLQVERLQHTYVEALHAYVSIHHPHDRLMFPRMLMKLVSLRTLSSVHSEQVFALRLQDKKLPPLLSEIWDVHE

[6] = target: T4, Retinoic acid receptor beta (Homo sapiens, UniProt P10826); assay type: functional, cell-based
T4 sequence (P10826 whole entry): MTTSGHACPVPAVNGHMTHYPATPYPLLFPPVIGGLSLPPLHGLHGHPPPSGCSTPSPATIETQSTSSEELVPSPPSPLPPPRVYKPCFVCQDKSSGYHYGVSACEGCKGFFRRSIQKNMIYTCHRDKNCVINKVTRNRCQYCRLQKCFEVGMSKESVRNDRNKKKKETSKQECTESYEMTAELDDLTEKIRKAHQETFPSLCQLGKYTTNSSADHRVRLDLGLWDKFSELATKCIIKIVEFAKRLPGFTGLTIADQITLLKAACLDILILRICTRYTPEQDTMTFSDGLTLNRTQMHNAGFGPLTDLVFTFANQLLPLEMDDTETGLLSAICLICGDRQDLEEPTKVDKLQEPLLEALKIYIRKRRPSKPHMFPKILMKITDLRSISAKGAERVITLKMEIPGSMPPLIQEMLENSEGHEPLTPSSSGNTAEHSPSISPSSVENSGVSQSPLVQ

[7] = target: T4, Retinoic acid receptor beta; assay type: functional, cell-based; remark: listed apart in the source
[8] = target: T5, Retinoic acid receptor gamma (Homo sapiens, UniProt P13631); assay type: functional, cell-based
T5 sequence (P13631 whole entry): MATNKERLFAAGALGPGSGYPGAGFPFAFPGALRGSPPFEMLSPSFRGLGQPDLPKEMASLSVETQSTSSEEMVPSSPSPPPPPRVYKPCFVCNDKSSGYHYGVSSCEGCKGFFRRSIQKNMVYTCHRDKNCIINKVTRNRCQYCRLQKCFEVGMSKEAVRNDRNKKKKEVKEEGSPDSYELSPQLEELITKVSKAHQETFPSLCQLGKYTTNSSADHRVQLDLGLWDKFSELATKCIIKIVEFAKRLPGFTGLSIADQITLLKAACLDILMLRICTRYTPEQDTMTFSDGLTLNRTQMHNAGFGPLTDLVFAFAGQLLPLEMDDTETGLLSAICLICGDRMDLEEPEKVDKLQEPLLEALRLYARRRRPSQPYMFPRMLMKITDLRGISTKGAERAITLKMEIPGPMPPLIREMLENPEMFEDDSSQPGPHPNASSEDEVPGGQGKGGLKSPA
Also: assay procedure not described here.

Synaptic vesicular amine transporter, sequence (Q01827 whole entry): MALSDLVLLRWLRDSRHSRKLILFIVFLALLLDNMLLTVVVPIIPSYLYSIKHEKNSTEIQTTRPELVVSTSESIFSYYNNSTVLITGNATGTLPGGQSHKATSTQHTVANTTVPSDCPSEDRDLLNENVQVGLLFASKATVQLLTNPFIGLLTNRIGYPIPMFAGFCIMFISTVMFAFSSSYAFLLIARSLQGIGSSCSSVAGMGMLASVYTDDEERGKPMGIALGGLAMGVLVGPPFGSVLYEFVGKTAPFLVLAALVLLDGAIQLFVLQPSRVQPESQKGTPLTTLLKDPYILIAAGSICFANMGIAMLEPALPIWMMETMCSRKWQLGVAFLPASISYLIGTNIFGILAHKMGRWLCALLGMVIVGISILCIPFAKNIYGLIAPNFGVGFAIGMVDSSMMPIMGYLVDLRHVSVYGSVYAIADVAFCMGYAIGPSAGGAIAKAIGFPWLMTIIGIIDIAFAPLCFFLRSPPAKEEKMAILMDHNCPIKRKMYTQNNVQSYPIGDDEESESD

## CCNC(C)Cc1cccc(C(F)(F)F)c1 (stereo not drawn) [FENFLURAMINE]
[1]
  AC50: 3.71 µM

## [H]/N=C(/N)c1ccc(NCc2nc3cc(C(=O)N(CCC(=O)O)c4ccccn4)ccc3n2C)cc1 [DABIGATRAN]
Glucocorticoid receptor [2]
  AC50: > 30 µM
Glucocorticoid receptor [3]
  AC50: > 30 µM

## BIVALIRUDIN
[4]
  AC50: > 30 µM

## CC(C)c1c(C(=O)Nc2ccccc2)c(-c2ccccc2)c(-c2ccc(F)cc2)n1CC[C@@H](O)C[C@@H](O)CC(=O)O [ATORVASTATIN]
[5]
  AC50: > 30 µM
[6]
  AC50: > 30 µM
[7]
  AC50: > 30 µM
[8]
  AC50: > 30 µM
